Data published in ChEMBL document CHEMBL1201862, “PubChem BioAssay data set” (2004).
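Assay format: 96-well plates, 48-hour exposure. Abbreviation: GI50, concentration required for 50% inhibition of growth.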 Activity calls are given as the source filed them. Cut-off read from the data, not from the text of the source: active = GI50 up to about 1.1 µM and inactive = higher.

Assays:
Assay in all cases: growth of human tumour cells (NCI), 48 h
[1] = system: ACHN
[2] = system: COLO 205
[3] = system: HCC 2998
[4] = system: HOP-92
[5] = system: LOX IMVI
[6] = system: M14
[7] = system: MDA-N
[8] = system: NCI-H460
[9] = system: SF-295
[10] = system: SK-MEL-28
[11] = system: SN12C
[12] = system: SNB-19
[13] = system: UO-31
[14] = system: CAKI-1
[15] = system: HOP-62
[16] = system: IGROV-1
[17] = system: Malme-3M
[18] = system: OVCAR-5
[19] = system: EKVX
[20] = system: 786-0

Measured: GI50

CS(=O)(=O)OCC(CCl)(CCl)CCl
inactive: [1] > 100 µM | [2] > 100 µM | [3] > 100 µM | [4] > 100 µM | [5] > 100 µM | [6] > 100 µM | [7] > 100 µM | [8] > 100 µM | [9] > 100 µM | [10] > 100 µM | [11] > 100 µM | [12] > 100 µM | [13] > 100 µM

O=C(/N=N/c1ccc(Br)cc1)NNc1ccc(Br)cc1
inactive: [14] 23.7 µM | [2] 23 µM | [3] 21.5 µM | [15] 16.4 µM | [4] 16.1 µM | [16] 22.1 µM | [6] 17.1 µM | [7] 24.2 µM | [17] 26 µM | [8] 21.9 µM | [18] 23.3 µM | [9] 28.1 µM | [10] 26.3 µM | [12] 39.8 µM | [13] 22.9 µM

Cc1cc(C)c(/C=C(\C(=C/c2c(C)cc(C)cc2C)[N+](=O)[O-])[N+](=O)[O-])c(C)c1
inactive: [1] > 100 µM | [14] > 100 µM | [2] > 100 µM | [19] > 100 µM | [3] > 100 µM | [15] > 100 µM | [4] > 100 µM | [16] > 100 µM | [5] 43.4 µM | [6] > 100 µM | [7] > 100 µM | [8] 46.7 µM | [18] > 100 µM | [9] > 100 µM | [10] > 100 µM | [11] > 100 µM | [12] > 100 µM | [13] > 100 µM

O=C(/C=C/c1ccc2c(c1)OCO2)NCCc1ccco1
inactive: [1] 53 µM | [14] 52.5 µM | [2] > 100 µM | [19] 73.3 µM | [3] > 100 µM | [15] 83.8 µM | [4] 92.7 µM | [16] 19.5 µM | [5] 78.5 µM | [6] 45.5 µM | [7] > 100 µM | [17] 41.6 µM | [8] 69.8 µM | [18] > 100 µM | [9] 54.8 µM | [10] > 100 µM | [11] > 100 µM | [12] > 100 µM | [13] 41 µM

COC(=O)CCc1ccc(CCC(=O)OC)cc1
inactive: [20] > 100 µM | [1] > 100 µM | [14] > 100 µM | [19] > 100 µM | [3] > 100 µM | [15] > 100 µM | [4] > 100 µM | [16] > 100 µM | [5] > 100 µM | [6] > 100 µM | [7] > 100 µM | [17] > 100 µM | [8] > 100 µM | [18] > 100 µM | [9] > 100 µM | [10] > 100 µM | [12] > 100 µM | [13] > 100 µM

C[C@@H]1CC[C@@]2(OC1)O[C@H]1[C@@H](O)[C@H]3[C@@H]4CC[C@H]5C[C@@H](O[C@@H]6O[C@H](CO)[C@H](O[C@@H]7O[C@H](CO)C(O)[C@H](O[C@@H]8OC[C@@H](O)[C@H](O)[C@H]8O)[C@H]7O[C@@H]7O[C@H](CO)[C@H](O)[C@H](O[C@@H]8O[C@H](CO)[C@@H](O)[C@H](O)[C@H]8O)[C@H]7O)[C@H](O)[C@H]6O)[C@H](O)C[C@]5(C)[C@H]4CC[C@]3(C)[C@H]1[C@@H]2C (some centres undefined) [DIGITONIN]
inactive: [20] 1.61 µM | [1] 1.52 µM | [14] 1.39 µM | [2] 1.68 µM | [19] 3.13 µM | [3] 1.66 µM | [15] 2.37 µM | [4] 4.74 µM | [16] 2.83 µM | [5] 3.42 µM | [6] 12.4 µM | [7] 3.33 µM | [8] 1.94 µM | [18] 2.07 µM | [9] 1.82 µM | [10] 2.61 µM | [11] 2.97 µM | [12] 2.07 µM | [13] 1.94 µM

CCP(=O)(CC)C(Cl)(Cl)C(=O)NC
inactive: [1] > 100 µM | [14] > 100 µM | [2] > 100 µM | [3] > 100 µM | [15] > 100 µM | [4] > 100 µM | [16] > 100 µM | [5] > 100 µM | [6] > 100 µM | [7] > 100 µM | [8] > 100 µM | [18] > 100 µM | [9] > 100 µM | [10] > 100 µM | [11] > 100 µM | [12] > 100 µM | [13] > 100 µM

O=c1[nH]nc(NNc2ccccc2)c2nnn(C3CCCCC3)c12
inactive: [1] > 100 µM | [14] > 100 µM | [2] > 100 µM | [19] > 100 µM | [3] > 100 µM | [15] > 100 µM | [4] > 100 µM | [5] > 100 µM | [6] > 100 µM | [7] > 100 µM | [17] > 100 µM | [8] 77.6 µM | [18] > 100 µM | [9] > 100 µM | [10] > 100 µM | [11] > 100 µM | [12] > 100 µM | [13] > 100 µM

c1ccc(CN[C@]23C4C5CC6C7C5C2C7[C@@](NCc2ccccc2)(C64)N3Cc2ccccc2)cc1 (some centres undefined)
inactive: [20] > 100 µM | [1] > 100 µM | [14] > 100 µM | [2] > 100 µM | [19] > 100 µM | [15] > 100 µM | [4] > 100 µM | [16] > 100 µM | [5] > 100 µM | [6] > 100 µM | [7] > 100 µM | [17] > 100 µM | [8] > 100 µM | [18] > 100 µM | [9] > 100 µM | [10] > 100 µM | [11] > 100 µM | [12] > 100 µM | [13] > 100 µM

COc1c2c(cc3c1OCO3)C13C=CC(OC)CC1N(CC3)C2.[O-][Cl+3]([O-])([O-])O (centres undefined)
inactive: [20] > 100 µM | [1] > 100 µM | [14] > 100 µM | [2] 35.6 µM | [19] > 100 µM | [3] 90.8 µM | [15] > 100 µM | [4] > 100 µM | [16] > 100 µM | [5] > 100 µM | [6] > 100 µM | [7] 37.3 µM | [17] > 100 µM | [18] > 100 µM | [9] > 100 µM | [10] > 100 µM | [11] > 100 µM | [12] > 100 µM | [13] > 100 µM

O=C(O)CC(Cc1ccc2c(c1)OCO2)C(=O)O (centres undefined)
inactive: [20] > 100 µM | [1] > 100 µM | [2] > 100 µM | [19] > 100 µM | [3] > 100 µM | [15] > 100 µM | [4] > 100 µM | [16] > 100 µM | [5] > 100 µM | [6] > 100 µM | [7] > 100 µM | [17] > 100 µM | [8] > 100 µM | [18] > 100 µM | [9] > 100 µM | [10] > 100 µM | [11] > 100 µM | [12] > 100 µM | [13] > 100 µM
